Measurements as given in ChEMBL document CHEMBL5113465, “Design, synthesis and evaluation of alpha lipoic acid derivatives to treat multiple sclerosis-associated central neuropathic pain” (Bioorg Med Chem, 2022).

Experiments:
[1] = Stability of compound in pH 6.8 intestinal enzyme-free fluid assessed as decomposition measured within 20 mins by HPLC analysis; type: ADME; conditions: buffer, pH 6.8, 20 min
[2] = Stability of compound in pH 1.5 gastric enzyme-free fluid assessed as decomposition measured within 20 mins by HPLC analysis; type: ADME; conditions: buffer, pH 1.5, 20 min
[3] = Octanol/water partition coefficient, log P of the compound by HPLC analysis; type: physicochemical
[4] = Aqueous solubility of compound; type: physicochemical
[5] = Half life in pH 6.8 intestinal enzyme-free fluid assessed as parent compound remaining neutralized with 0.1 N triethylamine solution at 20 mins interval for 3 hrs by HPLC analysis; type: ADME
[6] = Half life in pH 1.5 gastric enzyme-free fluid assessed as parent compound remaining neutralized with 0.1 N triethylamine solution at 20 mins interval for 3 hrs by HPLC analysis; type: ADME
[7] = Stability in mouse plasma at 1 to 500 ppm measured within 1 min by LC-MS analysis; type: ADME, cell-free; conditions: dose 1-500 ppm
[8] = Apparent permeability in human Caco-2 cells measured after 15 mins by LC-MS analysis; type: ADME, cell-based
[9] = Half life in mouse plasma at 0.1 to 50 ppm by LC-MS analysis; type: ADME, cell-free; conditions: dose 0.1-50 ppm
[10] = aqueous medium, read-out: solubility

Row | logP [3] | solubility [4, 10] [µM] | half-life [5] [min] | half-life [6] [min] | further results | Compound
1 | 2.64 | < 10 |  |  | Drug degradation [1]: Active; Drug degradation [2]: Active | O=C(CCCC[C@@H]1CCSS1)OCCN1CCOCC1
2 | 0.94 | < 2000 |  |  |  | O=C(CCCC[C@@H]1CCSS1)OC[C@H]1OC(O)[C@H](O)[C@@H](O)[C@@H]1O (some centres undefined)
3 |  |  | > 120 | > 120 |  | CN1CCN(CCOC(=O)CCCC[C@@H]2CCSS2)CC1
4 |  |  | > 120 | > 120 |  | O=C(CCCC[C@@H]1CCSS1)OCCOCCOCCO
5 |  |  |  |  | Stability [7]: Unstable; solubility ([4]; buffer): Soluble | Cl.O=C(CCCC[C@@H]1CCSS1)OCCN1CCOCC1
6 |  |  | > 120 | > 120 | Papp at 0.25 h [8]: 15.9 ×10⁻⁶ cm/s | Cc1oc(=O)oc1COC(=O)CCCC[C@@H]1CCSS1
7 | 2.03 | < 10 | > 120 | > 120 |  | O=C(CCCC[C@@H]1CCSS1)OCc1cc(=O)c(O)co1
8 |  |  | > 120 | > 120 |  | O=C(CCCC[C@@H]1CCSS1)OC(CO)CO
9 | 0.31 | > 10000 |  |  | half-life [9]: 90 min | O=C(CCCC[C@@H]1CCSS1)O[C@H]1[C@H](O)[C@@H](CO)OC(O)[C@@H]1O (some centres undefined)
